Data published in US20260256789A1, “METHODS FOR TREATMENT OF CANCER” (Frontier Medicines Corporation, priority 2022, published 2026).

Biological target: T1, KRAS G12C (GMPPNP-loaded) and cRAF Ras-binding domain (Homo sapiens, UniProt P01116, C118S/C51S/C80L/G12C)
T1 construct: truncated version comprising amino acids 1-169
Assay: Inhibition of KRAS G12C and cRAF binding (AlphaScreen)
Conditions: KRAS G12C preloaded with GTP analogue GMPPNP, 2 hours preincubation
Excerpt: The ability of compounds of Formula (A), Formula (B) and Formula (C), and pharmaceutically acceptable salts and/or isotopologues thereof, to inhibit activity of the GTP-bound form of KRAS G12C can be tested using methods such as the in vitro assay described in Example 179 below. Example 179 describes determining, for various compounds, the half-maximal inhibition (IC50) of KRAS G12C loaded with GTP analogue GMPPNP from binding to cRaf, as the Ras-binding domain (RBD). Example 180 describes determining, for various compounds, the half-maximal inhibition (IC50) of KRAS G12C loaded with GTP analogue GMPPNP from binding to PI3Kα, as the Ras-binding domain (RBD). Example 181 describes testing compounds for the ability to inhibit cell viability in MCF10A G12C/A59G mutant, which abrogates GTPase activity, thus preventing hydrolysis of GTP to GDP.
The AlphaScreen technology was used to determine IC50s for compound inhibition of KRAS G12C (present as the Cys-light (C51S, C80L and C118S), truncated version comprising amino acids 1-169) and cRAF interaction. Compounds were diluted in 100% DMSO and each compound concentration was spotted at 200 nl/well onto low volume, white 384 well plates. The KRAS G12C contained a biotin-AviTag and the cRaf, as Ras-binding domain (amino acids 50-131, RBD), was GST-tagged. KRAS G12C was preloaded with the GTP analogue Guanosine 5′-[β,γ-imido]triphosphate (GMPPNP). The KRAS G12C was diluted in 25 mM Hepes, pH 7.4, 150 mM NaCl, 5 mM MgCl2, 0.01% TritonX-100 and 10 μM GMPPNP and added at 10 ul/well to compound-spotted plates resulting in a DMSO concentration of 2%. Plates were incubated for 2 hours. A mixture of RBD and the AlphaScreen streptavidin donor and glutathione acceptor beads diluted in 25 mM Hepes, pH 7.4, 150 mM NaCl, 5 mM MgCl2, 0.01% TritonX-100 and 2% DMSO was then added at 10 ul/well and incubated for 60-90 minutes before the samples were read for emission at 570 nm after excitation of the donor beads at 680 nm. All incubations were performed at room temperature. The final top compound concentration was 50 μM with 1:3 titrations for 10-point dose response curves. Final assay conditions were 0.5 nM KRAS G12C, 0.75 nM RBD and 5 μg/ml each of AlphaScreen donor and acceptor beads. IC50s were determined using nonlinear regression fit of [inhibitor] vs. response (4 parameters). […]

T1 sequence (P01116 1-169 isoform P01116-2 G12C/C51S/C80L/C118S): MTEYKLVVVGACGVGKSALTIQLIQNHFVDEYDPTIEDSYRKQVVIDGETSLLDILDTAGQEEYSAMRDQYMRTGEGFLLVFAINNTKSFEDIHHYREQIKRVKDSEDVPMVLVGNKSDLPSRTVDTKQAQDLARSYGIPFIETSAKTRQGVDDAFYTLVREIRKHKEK

| IC50 [nM] | Structure (SMILES) |
| --- | --- |
| 100 to 500 | C=CC(=O)N1CC[C@@H](N(C)c2nc(OC[C@@]34CCCN3C[C@H](F)C4)nc3c(F)c(-c4cc(F)cc(Cl)c4C4CC4)ncc23)C1 [Example 191] |
| ≥ 500 | C=CC(=O)N1CC[C@@H](N(C)c2nc(OC[C@@]34CCCN3C[C@H](F)C4)nc3c(F)c(-c4cc(C(F)F)cc(Cl)c4C4CC4)ncc23)C1 [Example 263] |
| 10 to 100 | CN1CC[C@@H]1/C=C/C(=O)N1CC[C@@H](N(C)c2nc(OC[C@@]34CCCN3C[C@H](F)C4)nc3c(F)c(-c4nc(N)cc5cccc(Cl)c45)ncc23)C1 (single isomer, unassigned) [Example 3] |
| < 10 | Cc1cc(N)nc(-c2ncc3c(N(C)[C@@H]4CCN(C(=O)/C=C/[C@H]5CCN5C)C4)nc(OC[C@@]45CCCN4C[C@H](F)C5)nc3c2F)c1C(F)(F)F (single isomer, unassigned) [Example 26] |
| ≥ 500 | C=CC(=O)N1CC[C@@H](N(C)c2nc(OC[C@@]34CCCN3C[C@H](F)C4)nc3c(F)c(-c4cc(OC(F)F)ccc4Cl)ncc23)C1 [Example 186] |
| 100 to 500 | C=CC(=O)N1CC(CN(C)c2nc(OC[C@@]34CCCN3C[C@H](F)C4)nc3c2C[C@@H](C)[C@H](c2nc(N)cc(C)c2C(F)(F)F)C3)C1 (single isomer, unassigned) [Example 58] |
| 10 to 100 | CN(c1nc(OC[C@@]23CCCN2C[C@H](F)C3)nc2c(F)c(-c3cccc(Cl)c3C3CC3)ncc12)[C@@H]1CCN(C(=O)/C=C/CN2CC[C@@H](F)C2)C1 [Example 262] |
| 100 to 500 | C=CC(=O)N1CC[C@@H](N(C)c2nc(OCC34CCCN3CCC4)nc3c(F)c(-c4nc(N)cc5cccc(Cl)c45)ncc23)C1 [Example 69, (R)-1-(3-((7-(3-amino-8-chloroisoquinolin-1-yl)-8-fluoro-2-((hexahydro-1H-pyrrolizin-7a-yl)methoxy)pyrido[4,3-d]pyrimidin-4-yl)(methyl)amino)pyrrolidin-1-yl)prop-2-en-1-one] |
| 10 to 100 | CN1CC[C@@H]1/C=C/C(=O)N1CC[C@@H](N(C)c2nc(OC[C@@]34CCCN3C[C@H](F)C4)nc3c(F)c(-c4cccc(Cl)c4C(F)(F)F)ncc23)C1 [Example 242] |
| < 10 | Cc1cc(N)nc(-c2ncc3c(N(C)[C@@H]4CCN(C(=O)/C=C/c5nc(C(C)(F)F)no5)C4)nc(OC[C@@]45CCCN4C[C@H](F)C5)nc3c2F)c1C(F)(F)F [Example 56, (E)-1-((R)-3-((7-(6-amino-4-methyl-3-(trifluoromethyl)pyridin-2-yl)-8-fluoro-2-(((2R,7aS)-2-fluorotetrahydro-1H-pyrrolizin-7a(5H)-yl)methoxy)pyrido[4,3-d]pyrimidin-4-yl)(methyl)amino)pyrrolidin-1-yl)-3-(3-(1,1-difluoroethyl)-1,2,4-oxadiazol-5-yl)prop-2-en-1-one] |
| 100 to 500 | C=CC(=O)N1CC[C@@H](N(C)c2nc(OC[C@@]34CCCN3C[C@H](F)C4)nc3c(F)c(-c4nc(N)ccc4C(F)(F)F)ncc23)C1 [Example 46, 1-((R)-3-((7-(6-amino-3-(trifluoromethyl)pyridin-2-yl)-8-fluoro-2-(((2R,7aS)-2-fluorotetrahydro-1H-pyrrolizin-7a(5H)-yl)methoxy)pyrido[4,3-d]pyrimidin-4-yl)(methyl)amino)pyrrolidin-1-yl)prop-2-en-1-one] |
| < 10 | Cc1noc(/C=C/C(=O)N2CC[C@@H](N(C)c3nc(OC[C@@]45CCCN4C[C@H](F)C5)nc4c3C[C@@H](C)[C@H](c3nc(N)cc(C)c3C(F)(F)F)C4)C2)n1 [Example 136] |
| ≥ 500 | C=CC(=O)N1CC[C@@H](N(C)c2nc(OC[C@@]34CCCN3C[C@H](F)C4)nc3c(F)c(-c4nc(N)ccc4C)ncc23)C1 [Example 125, 1-((R)-3-((7-(6-amino-3-methylpyridin-2-yl)-8-fluoro-2-(((2R,7aS)-2-fluorotetrahydro-1H-pyrrolizin-7a(5H)-yl)methoxy)pyrido[4,3-d]pyrimidin-4-yl)(methyl)amino)pyrrolidin-1-yl)prop-2-en-1-one] |
| < 10 | Cc1cc(N)nc(-c2ncc3c(N(C)[C@@H]4CCN(C(=O)C#CCN(C)C)C4)nc(OC[C@@]45CCCN4C[C@H](F)C5)nc3c2F)c1C(F)(F)F [Example 159] |
| 10 to 100 | CN(c1nc(OC[C@@]23CCCN2C[C@H](F)C3)nc2c(F)c(-c3cccc(Cl)c3C3CC3)ncc12)[C@@H]1CCN(C(=O)/C=C/CN2[C@@H]3CC[C@H]2COC3)C1 [Example 241] |
| 100 to 500 | C=CC(=O)N1CC[C@@H](N(C)c2nc(OC[C@@]34CCCN3C[C@H](F)C4)nc3c(F)c(-c4nc(N)cc(C)c4C)ncc23)C1 [Example 171] |
| ≥ 500 | Cc1cc(N)nc([C@H]2Cc3nc(OC[C@@]45CCCN4C[C@H](F)C5)nc(N(C)[C@@H]4CCN(C(=O)/C=C/c5nc(C(C)(C)O)no5)C4)c3C[C@@H]2C)c1C(F)(F)F [Example 94, (E)-1-((R)-3-(((6S,7S)-7-(6-amino-4-methyl-3-(trifluoromethyl)pyridin-2-yl)-2-(((2R,7aS)-2-fluorotetrahydro-1H-pyrrolizin-7a(5H)-yl)methoxy)-6-methyl-5,6,7,8-tetrahydroquinazolin-4-yl)(methyl)amino)pyrrolidin-1-yl)-3-(3-(2-hydroxypropan-2-yl)-1,2,4-oxadiazol-5-yl)prop-2-en-1-one] |
| 100 to 500 | C=CC(=O)N1CC[C@@H](N(C)c2nc(OC[C@@]34CCCN3C[C@H](F)C4)nc3c(F)c(-c4cccc(Cl)c4C4CC4)ncc23)[C@H]1C (single isomer, unassigned) [Example 77] |
| 100 to 500 | C=CC(=O)N1CC[C@@H](N(C)c2nc(OC[C@@]34CCCN3C[C@H](F)C4)nc3c2CC(C)C(c2nc(N)cc(C)c2C(F)(F)F)C3)C1 (stereo partly drawn) [Example 138] |
| 10 to 100 | Cc1cc(N)nc(-c2ncc3c(N(C)[C@@H]4CCN(C(=O)/C=C/c5nc(C(C)C)no5)C4)nc(OC[C@@]45CCCN4C[C@H](F)C5)nc3c2F)c1C [Example 53, (E)-1-((R)-3-((7-(6-amino-3,4-dimethylpyridin-2-yl)-8-fluoro-2-(((2R,7aS)-2-fluorotetrahydro-1H-pyrrolizin-7a(5H)-yl)methoxy)pyrido[4,3-d]pyrimidin-4-yl)(methyl)amino)pyrrolidin-1-yl)-3-(3-isopropyl-1,2,4-oxadiazol-5-yl)prop-2-en-1-one] |
| ≥ 500 | C=CC(=O)N1CC[C@@H](N(C)c2nc(OC[C@@]34CCCN3C[C@H](F)C4)nc3c(F)c(-c4cncc(Cl)c4C4CC4)ncc23)C1 [Example 240] |
| 10 to 100 | Cc1ccc(N)nc1-c1ncc2c(N(C)[C@@H]3CCN(C(=O)/C=C/c4nc(C(C)C)no4)C3)nc(OC[C@@]34CCCN3C[C@H](F)C4)nc2c1F [Example 86] |
| < 10 | CN1CC[C@@H]1/C=C/C(=O)N1CC[C@@H](N(C)c2nc(OC[C@@]34CCCN3C[C@H](F)C4)nc3c(F)c(-c4cc(O)cc(F)c4C4CC4)ncc23)C1 [Example 180] |
| ≥ 500 | C=CC(=O)N1CC[C@@H](N(C)c2nc(OC[C@@]34CCCN3C[C@H](F)C4)nc3c(F)c(-c4nc(N)ccc4OC(F)F)ncc23)C1 [Example 261] |
| 100 to 500 | Cc1noc(/C=C/C(=O)N2CC[C@@H](N(C)c3nc(OCC45CCCN4CCC5)nc4c3C[C@@H](C)[C@H](c3nc(N)cc(C)c3C(F)(F)F)C4)C2)n1 [Example 124] |
| 100 to 500 | CN(c1nc(OCC23CCCN2CCC3)nc2c(F)c(-c3nc(N)cc4cccc(F)c34)ncc12)[C@@H]1CCN(C#N)C1 [Example 70, (R)-3-((7-(3-amino-8-fluoroisoquinolin-1-yl)-8-fluoro-2-((hexahydro-1H-pyrrolizin-7a-yl)methoxy)pyrido[4,3-d]pyrimidin-4-yl)(methyl)amino)pyrrolidine-1-carbonitrile] |
| ≥ 500 | C=CC(=O)N1CC[C@@H](N(C)c2nc(OC[C@@]34CCCN3C[C@H](F)C4)nc3c(F)c(-c4cccc(OC(F)F)c4C4CC4)ncc23)C1 [Example 187] |
| 100 to 500 | C=CC(=O)N1CC[C@@H](N(C)c2nc(OCC34CCCN3CCC4)nc3c2C[C@H](C)[C@@H](c2nc(N)cc(C)c2C(F)(F)F)C3)C1 (single isomer, unassigned) [Example 18] |
| ≥ 500 | C=CC(=O)N1CC[C@@H](N(C)c2nc(OC[C@@]34CCCN3C[C@H](F)C4)nc3c(F)c(-c4cccc5cn[nH]c45)ncc23)C1 [Example 264] |
| 100 to 500 | Cc1nccc(/C=C/C(=O)N2CC[C@@H](N(C)c3nc(OC[C@@]45CCCN4C[C@H](F)C5)nc4c(F)c(-c5cccc(Cl)c5C5CC5)ncc34)C2)n1 [Example 221] |
